# Assay results taken from patent US20240400572A1, “COMPOUNDS AND METHODS FOR TREATING CANCERS THAT ARE MGMT DEFICIENT REGARDLESS OF MMR STATUS” (Yale University, priority 2021, published 2024).
# “And” between values parts separate entries of the source, which are not always exact repeats. Equal values may be shown once. Read-outs that look alike come from different tables or passages of the source.
# Experiment: Brain distribution study
# Type: in vivo, male C57BL/6 mice
# Description: Compound KL50 dosing solution: 3.39% DMSO+96.61% (10% HP-β-CD in saline) at 2 mg/mL; • 1) Weigh 17.39 mg of compound KL50 into a clean tube. • 2) Add 0.295 mL DMSO into the tube containing the compound. • 3) Vortex the tube for 3 min and sonicate it for 4 min. • 4) Add 8.400 mL 10% HP-β-CD in saline into the tube and vortex the tube for 3 min. Compound I-1 dosing solution: 3.39% DMSO+96.61% (10% HP-β-CD in saline) at 2 mg/mL; • 1) Weigh 16.86 mg Compound I-1 into a clean tube. • 2) Add 0.286 mL DMSO into the tube containing the compound. • 3) Vortex the tube for 3 min and sonicate it for 4 min. • 4) Add 8.144 mL 10% HP-β-CD in saline into the tube and vortex the tube for 3 min.
# The in-vivo pharmacokinetic and brain distribution study was conducted under the following parameters. Twenty seven C57BL/6 male mice were purchased from Shanghai JiHui Laboratory Animal Co. LTD. Each mouse weighted from 16 g to 17 g. The mice were fasted overnight and fed post 4 hr sampling. Compound KL50 and Compound I-I were administered via oral gavage (PO) at a dose of 20 mg/kg (10 mL/kg). After dosing, sampling was completed at 0.083, 0.167, 0.333, 0.5, 0.75, 1, 2, 4 and 8 hr post dose, with three mice sacrificed at each time point.
# Terminal bleeding for plasma and brain was completed at each time point. Approximately 110 μL blood per time point was collected into a K2EDTA tube via the facial vein. The blood sample was put on wet ice and centrifuged to obtain plasma sample (2000 g, 5 min under 4° C.) within 15 minutes. Plasma samples were acidified with 6 μL of formic acid for every 54 μL of plasma. After blood collection, a mid-line incision was made in the animal's scalp and the skin was retracted. The skull overlying the brain was removed. Then, the whole brain was collected, rinsed with cold saline, dried on filtrate paper, and weighed; and then snap frozen by placing the brain into dry-ice. Plasma samples were stored at approximately −70° C. until analysis. Brain tissue was homogenized with 3 volumes (v/w) of PBS (1% FA) and then analyzed with LC-MS/MS. The concentration of study drug was corrected with a dilution factor of four as following: Brain concentration=brain homogenate conc.×4, assuming 1 g wet brain tissue equals to 1 mL
# [1] = PO 20 mg/kg, male C57BL/6 mice, 0.083 hr, 20 mg/kg
# [2] = PO 20 mg/kg, male C57BL/6 mice, 0.167 hr, 20 mg/kg
# [3] = PO 20 mg/kg, male C57BL/6 mice, 0.333 hr, 20 mg/kg
# [4] = PO 20 mg/kg, male C57BL/6 mice, 0.5 hr, 20 mg/kg
# [5] = PO 20 mg/kg, male C57BL/6 mice, 0.75 hr, 20 mg/kg
# [6] = PO 20 mg/kg, male C57BL/6 mice, 1 hr, 20 mg/kg
# [7] = PO 20 mg/kg, male C57BL/6 mice, 2 hr, 20 mg/kg
# [8] = PO 20 mg/kg, male C57BL/6 mice, 4 hr
# [9] = PO 20 mg/kg, male C57BL/6 mice, 8 hr
# [10] = brain, PO 20 mg/kg, male C57BL/6 mice
# [11] = mouse, brain, PO 20 mg/kg, male C57BL/6 mice
smiles,measurement,setting,value
"CNC(=O)c1ncn2c(=O)n(CCF)nnc12 [Compound I-1, 3-(2-fluoroethyl)-N-methyl-4-oxo-3H,4H-imidazo[4,3-d][1,2,3,5]tetrazine-8-carboxamide]","Brain Concentration/Plasma Concentration, Individuals",[1],0.310 and 0.329
same,"brain Concentration, Individuals",[1],6300 ng/g and 6740 ng/g
same,"Brain Concentration/Plasma Concentration, Individuals",[2],0.473 and 0.549
same,"brain Concentration, Individuals",[2],7100 ng/g and 9110 ng/g
same,"Brain Concentration/Plasma Concentration, Individuals",[3],0.606 and 0.651
same,"brain Concentration, Individuals",[3],6850 ng/g and 8730 ng/g
same,"Brain Concentration/Plasma Concentration, Individuals",[4],0.677 and 0.522
same,"brain Concentration, Individuals",[4],4770 ng/g and 3750 ng/g
same,"Brain Concentration/Plasma Concentration, Individuals",[5],0.623 and 0.560
same,"brain Concentration, Individuals",[5],2500 ng/g and 1920 ng/g
same,"Brain Concentration/Plasma Concentration, Individuals",[6],0.626 and 0.527
same,"brain Concentration, Individuals",[6],952 ng/g and 1280 ng/g
same,"Brain Concentration/Plasma Concentration, Individuals",[7],0.483 and 0.490
same,"brain Concentration, Individuals",[7],155 ng/g and 345 ng/g and 90.6 ng/g
same,"brain Concentration, Individuals (below limit)",[8],BQL (Below the quantifiable limit of 1.00 ng/mL or ng/g for Compound I-1 in mouse plasma and brain homogenate)
same,"brain Concentration, Mean (below limit)",[8],BQL (Below the quantifiable limit of 1.00 ng/mL or ng/g for Compound I-1 in mouse plasma and brain homogenate)
same,"brain Concentration, Individuals (below limit)",[9],BQL (Below the quantifiable limit of 1.00 ng/mL or ng/g for Compound I-1 in mouse plasma and brain homogenate)
same,"brain Concentration, Mean (below limit)",[9],BQL (Below the quantifiable limit of 1.00 ng/mL or ng/g for Compound I-1 in mouse plasma and brain homogenate)
same,AUCINF,[10],4849 ng·h/g
same,AUClast,[10],4749 ng·h/g
same,concentration at 0.083 hr,"male, C57BL/6, mouse, brain, po, 20 mg/kg, PO 20 mg/kg, male C57BL/6 mice, 0.083 hr, N=3, read-out: brain Concentration, Mean",6300 ng/g
same,concentration at 0.083 hr,"male, C57BL/6, mouse, brain, po, 20 mg/kg, PO 20 mg/kg, male C57BL/6 mice, 0.083 hr, read-out: brain Concentration, Individuals",5860 ng/g
same,concentration at 0.167 hr,"male, C57BL/6, mouse, brain, po, 20 mg/kg, PO 20 mg/kg, male C57BL/6 mice, 0.167 hr, N=3, read-out: brain Concentration, Mean",7210 ng/g
same,concentration at 0.167 hr,"male, C57BL/6, mouse, brain, po, 20 mg/kg, PO 20 mg/kg, male C57BL/6 mice, 0.167 hr, read-out: brain Concentration, Individuals",5420 ng/g
same,concentration at 0.333 hr,"male, C57BL/6, mouse, brain, po, 20 mg/kg, PO 20 mg/kg, male C57BL/6 mice, 0.333 hr, N=3, read-out: brain Concentration, Mean",6840 ng/g
same,concentration at 0.333 hr,"male, C57BL/6, mouse, brain, po, 20 mg/kg, PO 20 mg/kg, male C57BL/6 mice, 0.333 hr, read-out: brain Concentration, Individuals",4950 ng/g
same,concentration at 0.5 hr,"male, C57BL/6, mouse, brain, po, 20 mg/kg, PO 20 mg/kg, male C57BL/6 mice, 0.5 hr, N=3, read-out: brain Concentration, Mean",3940 ng/g
same,concentration at 0.5 hr,"male, C57BL/6, mouse, brain, po, 20 mg/kg, PO 20 mg/kg, male C57BL/6 mice, 0.5 hr, read-out: brain Concentration, Individuals",3310 ng/g
same,concentration at 0.75 hr,"male, C57BL/6, mouse, brain, po, 20 mg/kg, PO 20 mg/kg, male C57BL/6 mice, 0.75 hr, N=3, read-out: brain Concentration, Mean",2240 ng/g
same,concentration at 0.75 hr,"male, C57BL/6, mouse, brain, po, 20 mg/kg, PO 20 mg/kg, male C57BL/6 mice, 0.75 hr, read-out: brain Concentration, Individuals",2290 ng/g
same,concentration at 1 hr,"male, C57BL/6, mouse, brain, po, 20 mg/kg, PO 20 mg/kg, male C57BL/6 mice, 1 hr, N=3, read-out: brain Concentration, Mean",1120 ng/g
same,concentration at 1 hr,"male, C57BL/6, mouse, brain, po, 20 mg/kg, PO 20 mg/kg, male C57BL/6 mice, 1 hr, read-out: brain Concentration, Individuals",1140 ng/g
same,concentration at 2 hr,"male, C57BL/6, mouse, brain, po, 20 mg/kg, PO 20 mg/kg, male C57BL/6 mice, 2 hr, N=3, read-out: brain Concentration, Mean",197 ng/g
same,Kp,"male, C57BL/6, mouse, brain/plasma, po, 20 mg/kg, AUCbrain/AUCplasma, PO 20 mg/kg, male C57BL/6 mice, heading: AUCbrain/AUCplasma",49.1%
same,Kp at 0.083 hr,"male, C57BL/6, mouse, brain/plasma, po, 20 mg/kg, PO 20 mg/kg, male C57BL/6 mice, 0.083 hr, N=3, read-out: Brain Concentration/Plasma Concentration, Mean",0.305
same,Kp at 0.083 hr,"male, C57BL/6, mouse, brain/plasma, po, 20 mg/kg, PO 20 mg/kg, male C57BL/6 mice, 0.083 hr, read-out: Brain Concentration/Plasma Concentration, Individuals",0.276
same,Kp at 0.167 hr,"male, C57BL/6, mouse, brain/plasma, po, 20 mg/kg, PO 20 mg/kg, male C57BL/6 mice, 0.167 hr, N=3, read-out: Brain Concentration/Plasma Concentration, Mean",0.501
same,Kp at 0.167 hr,"male, C57BL/6, mouse, brain/plasma, po, 20 mg/kg, PO 20 mg/kg, male C57BL/6 mice, 0.167 hr, read-out: Brain Concentration/Plasma Concentration, Individuals",0.48
same,Kp at 0.333 hr,"male, C57BL/6, mouse, brain/plasma, po, 20 mg/kg, PO 20 mg/kg, male C57BL/6 mice, 0.333 hr, N=3, read-out: Brain Concentration/Plasma Concentration, Mean",0.606
same,Kp at 0.333 hr,"male, C57BL/6, mouse, brain/plasma, po, 20 mg/kg, PO 20 mg/kg, male C57BL/6 mice, 0.333 hr, read-out: Brain Concentration/Plasma Concentration, Individuals",0.561
same,Kp at 0.5 hr,"male, C57BL/6, mouse, brain/plasma, po, 20 mg/kg, PO 20 mg/kg, male C57BL/6 mice, 0.5 hr, N=3, read-out: Brain Concentration/Plasma Concentration, Mean",0.575
same,Kp at 0.5 hr,"male, C57BL/6, mouse, brain/plasma, po, 20 mg/kg, PO 20 mg/kg, male C57BL/6 mice, 0.5 hr, read-out: Brain Concentration/Plasma Concentration, Individuals",0.525
same,Kp at 0.75 hr,"male, C57BL/6, mouse, brain/plasma, po, 20 mg/kg, PO 20 mg/kg, male C57BL/6 mice, 0.75 hr, N=3, read-out: Brain Concentration/Plasma Concentration, Mean",0.586
same,Kp at 0.75 hr,"male, C57BL/6, mouse, brain/plasma, po, 20 mg/kg, PO 20 mg/kg, male C57BL/6 mice, 0.75 hr, read-out: Brain Concentration/Plasma Concentration, Individuals",0.575
same,Kp at 1 hr,"male, C57BL/6, mouse, brain/plasma, po, 20 mg/kg, PO 20 mg/kg, male C57BL/6 mice, 1 hr, N=3, read-out: Brain Concentration/Plasma Concentration, Mean",0.559
same,Kp at 1 hr,"male, C57BL/6, mouse, brain/plasma, po, 20 mg/kg, PO 20 mg/kg, male C57BL/6 mice, 1 hr, read-out: Brain Concentration/Plasma Concentration, Individuals",0.523
same,Kp at 2 hr,"male, C57BL/6, mouse, brain/plasma, po, 20 mg/kg, PO 20 mg/kg, male C57BL/6 mice, 2 hr, N=3, read-out: Brain Concentration/Plasma Concentration, Mean",0.468
same,Kp at 2 hr,"male, C57BL/6, mouse, brain/plasma, po, 20 mg/kg, PO 20 mg/kg, male C57BL/6 mice, 2 hr, read-out: Brain Concentration/Plasma Concentration, Individuals",0.432
same,Cmax,[11],7210 ng/g
same,MRT inf,[11],31.6 min
same,Tmax,[11],10 min
same,half-life,[11],21.1 min
same,concentration in brain tissue compared with KL50 (in words),oral administration to mice,much larger concentration in brain tissue
